Consider 30 molecules from ChEMBL document CHEMBL1153688, “Design, synthesis, and pharmacological evaluation of dual histamine H2 and gastrin receptor antagonists” (Bioorg Med Chem Lett, 1996).

The target of experiment [1] is Cholecystokinin receptor (Mus musculus) (UniProt O08786+P56481). The experiment is described as follows: Ratio of IC50(gastrin) to IC50(CCK-A). In kind it is protein assay.
For experiment [2], the target named is Histamine H2 receptor (Rattus norvegicus, UniProt P25102). As to the kind of experiment: Antagonistic activity for inhibition of histamine H2 receptor from anesthetized rats. Type of experiment: functional. Particulars: read-out: pA2 (converted).
Sequence of Histamine H2 receptor (P25102 whole entry): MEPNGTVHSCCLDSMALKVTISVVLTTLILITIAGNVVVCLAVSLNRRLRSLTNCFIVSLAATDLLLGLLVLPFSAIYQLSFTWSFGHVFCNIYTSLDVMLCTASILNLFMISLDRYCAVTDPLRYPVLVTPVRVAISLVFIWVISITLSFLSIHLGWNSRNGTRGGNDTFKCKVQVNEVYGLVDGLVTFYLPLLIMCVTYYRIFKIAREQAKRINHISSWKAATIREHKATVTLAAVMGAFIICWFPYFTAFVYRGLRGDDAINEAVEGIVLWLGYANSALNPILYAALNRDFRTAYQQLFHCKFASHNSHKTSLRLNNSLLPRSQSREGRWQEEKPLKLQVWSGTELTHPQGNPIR
Experiment [3] addresses T1, Cholecystokinin receptor type A (Mus musculus, UniProt O08786).
T1 sequence (O08786 whole entry): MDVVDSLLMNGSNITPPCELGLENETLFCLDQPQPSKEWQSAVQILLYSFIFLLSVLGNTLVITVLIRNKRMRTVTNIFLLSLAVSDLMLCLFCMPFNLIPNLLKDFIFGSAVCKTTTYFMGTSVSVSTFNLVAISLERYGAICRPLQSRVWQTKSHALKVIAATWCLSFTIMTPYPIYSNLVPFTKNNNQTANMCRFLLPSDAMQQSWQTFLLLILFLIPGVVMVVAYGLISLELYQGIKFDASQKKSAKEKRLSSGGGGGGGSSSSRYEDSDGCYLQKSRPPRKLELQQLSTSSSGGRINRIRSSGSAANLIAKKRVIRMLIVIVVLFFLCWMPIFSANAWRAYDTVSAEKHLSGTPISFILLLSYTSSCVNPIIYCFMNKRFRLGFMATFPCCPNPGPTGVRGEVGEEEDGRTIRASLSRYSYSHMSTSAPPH
The experiment is described as follows: Inhibitory activity against Cholecystokinin type A receptor.

In experiment [4] the target is T2, Gastrin/cholecystokinin type B receptor (Mus musculus, UniProt P56481).
T2 sequence (P56481 whole entry): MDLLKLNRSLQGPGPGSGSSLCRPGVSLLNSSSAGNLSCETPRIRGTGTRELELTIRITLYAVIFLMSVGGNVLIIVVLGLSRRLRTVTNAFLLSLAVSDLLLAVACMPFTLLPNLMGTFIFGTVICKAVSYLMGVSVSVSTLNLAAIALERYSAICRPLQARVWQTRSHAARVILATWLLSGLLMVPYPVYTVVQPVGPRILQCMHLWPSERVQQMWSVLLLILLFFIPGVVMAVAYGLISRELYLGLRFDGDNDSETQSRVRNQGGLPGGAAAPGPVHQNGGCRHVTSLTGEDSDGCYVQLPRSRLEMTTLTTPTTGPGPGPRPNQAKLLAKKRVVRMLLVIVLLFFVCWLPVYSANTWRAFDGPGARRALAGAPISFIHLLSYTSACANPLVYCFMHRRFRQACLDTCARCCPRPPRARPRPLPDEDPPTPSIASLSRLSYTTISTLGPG
The experiment is described as follows: Inhibitory activity against Cholecystokinin type B receptor.

Each structure is given as a SMILES string.

Turning to `CN1C(=O)[C@H](NC(=O)Nc2cccc(CC(=O)NCCCOc3cccc(CN4CCCCC4)c3)c2)N=C(c2ccccc2)c2ccccc21`, the Ratio in experiment [1] was determined as 17.8. For the same molecule, the Kb in experiment [2] was above 10000 nM. Moreover, the IC50 (as a rule, the concentration that gives 50% inhibition) is 4100 nM in experiment [3] and 160 nM in experiment [4].

Consider `Cc1cccc(NC(=O)NC2N=C(c3cccc(OCC(=O)NCC(=O)NCCCOc4cccc(CN5CCCCC5)c4)c3)c3ccccc3N(C)C2=O)c1` (centres undefined), for which, in experiment [1], the Ratio worked out at 82.5. Moreover, in experiment [2], the Kb is 501 nM. In addition, the IC50 in experiment [3] came out at 5200 nM; in experiment [4] it was 550 nM.

Consider `CN1C(=O)[C@H](NC(=O)Nc2cccc(C(=O)NCCSCc3csc(N=C(N)N)n3)c2)N=C(c2ccccc2)c2ccccc21`, for which the Ratio in experiment [1] is 1. In addition, the Kb in experiment [2] was above 10000 nM. In addition, the IC50 in experiment [3] worked out at 380 nM; in experiment [4], 440 nM.

Turning to `CN1C(=O)[C@H](NC(=O)Nc2cccc(CC(=O)NCCC(=O)NCCSCc3csc(N=C(N)N)n3)c2)N=C(c2ccccc2)c2ccccc21`, in experiment [1], the Ratio came to 1.5. In addition, the Kb in experiment [2] is 398 nM. Further, the IC50 in experiment [3] came to 120 nM; in experiment [4], 200 nM.

For the molecule `Cc1cccc(NC(=O)NC2N=C(c3ccccc3)c3ccccc3N(CC(=O)NCCCC(=O)NCCCOc3cccc(CN4CCCCC4)c3)C2=O)c1` (centres undefined), in experiment [1], the Ratio turned out to be 4.3. Further, the Kb in experiment [2] was 794 nM. The IC50 in experiment [3] was found to be 900 nM; in experiment [4] it was 5000 nM.

For `Cc1cccc(NC(=O)NC2N=C(c3ccccc3)c3ccccc3N(CC(=O)NCCC(=O)NCCCOc3cccc(CN4CCCCC4)c3)C2=O)c1` (centres undefined), the Ratio in experiment [1] is 7. For the same molecule, the Kb in experiment [2] is 794 nM. Also, the values for the IC50 in experiment [3] and in experiment [4] were 1300 nM and 2150 nM, respectively.

As for `Cc1cccc(NC(=O)NC2N=C(c3cccc(OCC(=O)NCCC(=O)NCCCOc4cccc(CN5CCCCC5)c4)c3)c3ccccc3N(C)C2=O)c1` (centres undefined), the Ratio in experiment [1] is 75. Besides, the Kb in experiment [2] was 501 nM. Also, the IC50 amounted to 15000 nM in experiment [3] and 760 nM in experiment [4].

As for `Cc1cccc(NC(=O)NC2N=C(c3cccc(OCC(=O)NCCCC(=O)NCCCOc4cccc(CN5CCCCC5)c4)c3)c3ccccc3N(C)C2=O)c1` (centres undefined), the Ratio in experiment [1] was 157. The Kb in experiment [2] is 316 nM. Moreover, the results for the IC50 in experiment [3] and in experiment [4] were 9400 nM and 290 nM, respectively.

As for `Cc1cccc(NC(=O)NC2N=C(c3ccccc3)c3ccccc3N(CC(=O)NCC(=O)NCCSCc3csc(N=C(N)N)n3)C2=O)c1` (centres undefined), the Ratio in experiment [1] is 2.1. Further, in experiment [2], the Kb was 3980 nM. The IC50 stood at 760 nM in experiment [3] and 6800 nM in experiment [4].

Regarding `CN1C(=O)[C@H](NC(=O)Nc2cccc(CC(=O)NCCCCCC(=O)NCCSCc3csc(N=C(N)N)n3)c2)N=C(c2ccccc2)c2ccccc21`, the Ratio in experiment [1] is 4.2. In experiment [2], the Kb was 1000 nM. For the same molecule, the values for the IC50 in experiment [3] and in experiment [4] were 190 nM and 255 nM, respectively.

`Cc1cccc(NC(=O)N[C@@H]2N=C(c3ccccc3)c3ccccc3N(C)C2=O)c1` [L-365260]: the IC50 in experiment [3] came out at 11100 nM.

`Cc1cccc(NC(=O)NC2N=C(c3cccc(OCC(=O)NCCCOc4cccc(CN5CCCCC5)c4)c3)c3ccccc3N(C)C2=O)c1` (centres undefined): in experiment [1], the Ratio was 16.1. In addition, the Kb in experiment [2] was 5010 nM. Besides, the values for the IC50 in experiment [3] and in experiment [4] were 9200 nM and 1700 nM, respectively.

For `Cc1cccc(NC(=O)NC2N=C(c3ccccc3)c3ccccc3N(CC(=O)NCCCC(=O)NCCSCc3csc(N=C(N)N)n3)C2=O)c1` (centres undefined), the Ratio in experiment [1] was 3.8. The Kb in experiment [2] is 3160 nM. For the same molecule, the IC50 in experiment [3] came to 720 nM; in experiment [4], 6600 nM.

`Cc1cccc(NC(=O)NC2N=C(c3cccc(OCC(=O)NCC(=O)NCCSCc4csc(N=C(N)N)n4)c3)c3ccccc3N(C)C2=O)c1` (centres undefined): the Ratio in experiment [1] worked out at 90.8. Besides, the Kb in experiment [2] was 1000 nM. Besides, the figures for the IC50 in experiment [3] and in experiment [4] were 1090 nM and 310 nM, respectively.

For `Cc1cccc(NC(=O)NC2N=C(c3cccc(OCC(=O)NCCSCc4csc(N=C(N)N)n4)c3)c3ccccc3N(C)C2=O)c1` (centres undefined), the Ratio in experiment [1] was 40. For the same molecule, the Kb in experiment [2] is 5010 nM. Also, the IC50 in experiment [3] was found to be 5400 nM; in experiment [4], 350 nM.

Take `Cc1cccc(NC(=O)NC2N=C(c3cccc(OCC(=O)NCCCCCC(=O)NCCCOc4cccc(CN5CCCCC5)c4)c3)c3ccccc3N(C)C2=O)c1` (centres undefined): in experiment [1], the Ratio was 112. The Kb in experiment [2] was 631 nM. For the same molecule, the IC50 is 3600 nM in experiment [3] and 320 nM in experiment [4].

For `CN/C(=N/CCSCc1nc[nH]c1C)NC#N` [CIMETIDINE], the Kb in experiment [2] is 251 nM.

In the case of `CN1C(=O)[C@H](NC(=O)Nc2cccc(CC(=O)NCCCC(=O)NCCSCc3csc(N=C(N)N)n3)c2)N=C(c2ccccc2)c2ccccc21`, the Ratio in experiment [1] is 1.4. Further, in experiment [2], the Kb was 501 nM. Besides, the IC50 in experiment [3] and in experiment [4] was 330 nM throughout.

For the molecule `Cc1cccc(NC(=O)NC2N=C(c3ccccc3)c3ccccc3N(CC(=O)NCCC(=O)NCCSCc3csc(N=C(N)N)n3)C2=O)c1` (centres undefined), the Ratio in experiment [1] came to 5.2. Further, the Kb in experiment [2] was 1260 nM. Further, the values for the IC50 in experiment [3] and in experiment [4] were 390 nM and 430 nM, respectively.

For the molecule `CN1C(=O)[C@H](NC(=O)Nc2cccc(CC(=O)NCCCCCC(=O)NCCCOc3cccc(CN4CCCCC4)c3)c2)N=C(c2ccccc2)c2ccccc21`, in experiment [1], the Ratio is 3.1. For the same molecule, the Kb in experiment [2] is 631 nM. Further, the IC50 in experiment [3] turned out to be 340 nM; in experiment [4] it was 92 nM.

Take `Cc1cccc(NC(=O)NC2N=C(c3ccccc3)c3ccccc3N(CC(=O)NCCCOc3cccc(CN4CCCCC4)c3)C2=O)c1` (centres undefined): the Ratio in experiment [1] stood at 36.8. For the same molecule, in experiment [2], the Kb was above 10000 nM. Further, the 50% inhibitory concentration (IC50) in experiment [3] was 5700 nM; in experiment [4] it was 540 nM.

Take `CN1C(=O)[C@H](NC(=O)Nc2cccc(CC(=O)NCCSCc3csc(N=C(N)N)n3)c2)N=C(c2ccccc2)c2ccccc21`: the Ratio in experiment [1] is 3.4. For the same molecule, the Kb in experiment [2] is above 10000 nM. Also, the IC50 was found to be 560 nM in experiment [3] and 480 nM in experiment [4].

As to `CN1C(=O)[C@H](NC(=O)Nc2cccc(CC(=O)NCCC(=O)NCCCOc3cccc(CN4CCCCC4)c3)c2)N=C(c2ccccc2)c2ccccc21`, the Ratio in experiment [1] was 1.4. The Kb in experiment [2] was 251 nM. Also, the IC50 in experiment [3] was 190 nM; in experiment [4] it was 290 nM.

For the molecule `Cc1cccc(NC(=O)NC2N=C(c3ccccc3)c3ccccc3N(CC(=O)NCCCCCC(=O)NCCCOc3cccc(CN4CCCCC4)c3)C2=O)c1` (centres undefined), the Ratio in experiment [1] was found to be 40.6. For the same molecule, the Kb in experiment [2] is 398 nM. Further, the values for the IC50 in experiment [3] and in experiment [4] were 650 nM and 800 nM, respectively.

`CN1C(=O)[C@H](NC(=O)Nc2cccc(CC(=O)NCCCC(=O)NCCCOc3cccc(CN4CCCCC4)c3)c2)N=C(c2ccccc2)c2ccccc21`: in experiment [1], the Ratio was found to be 2.9. Further, the Kb in experiment [2] was 398 nM. Also, the IC50 in experiment [3] worked out at 330 nM; in experiment [4], 205 nM.

With `Cc1cccc(NC(=O)NC2N=C(c3cccc(OCC(=O)NCCC(=O)NCCSCc4csc(N=C(N)N)n4)c3)c3ccccc3N(C)C2=O)c1` (centres undefined), the Ratio in experiment [1] is 80. Further, the Kb in experiment [2] is 794 nM. The IC50 in experiment [3] came out at 2000 nM; in experiment [4] it was 400 nM.

With `Cc1cccc(NC(=O)NC2N=C(c3cccc(OCC(=O)NCCCC(=O)NCCSCc4csc(N=C(N)N)n4)c3)c3ccccc3N(C)C2=O)c1` (centres undefined), the Ratio in experiment [1] is 150. In experiment [2], the Kb was 631 nM. The results for the IC50 in experiment [3] and in experiment [4] were 2100 nM and 215 nM, respectively.

For `CN1C(=O)[C@H](NC(=O)Nc2cccc(C(=O)NCCCOc3cccc(CN4CCCCC4)c3)c2)N=C(c2ccccc2)c2ccccc21`, the Ratio in experiment [1] was found to be 4.5. The Kb in experiment [2] is above 10000 nM. In addition, the values for the IC50 in experiment [3] and in experiment [4] were 2500 nM and 600 nM, respectively.

For `Cc1cccc(NC(=O)NC2N=C(c3ccccc3)c3ccccc3N(CC(=O)NCC(=O)NCCCOc3cccc(CN4CCCCC4)c3)C2=O)c1` (centres undefined), the Ratio in experiment [1] came to 0.5. Moreover, the Kb in experiment [2] is 6310 nM. In addition, the IC50 worked out at 430 nM in experiment [3] and 3600 nM in experiment [4].

`Cc1cccc(NC(=O)NC2N=C(c3ccccc3)c3ccccc3N(CC(=O)NCCSCc3csc(N=C(N)N)n3)C2=O)c1` (centres undefined): the Ratio in experiment [1] is 1600. Further, in experiment [2], the Kb was above 10000 nM. The values for the IC50 in experiment [3] and in experiment [4] were 4800 nM and 35 nM, respectively.
